# Results taken from PMC8092209, “Structural Basis of Ligand Selectivity by a Bacterial Adhesin Lectin Involved in Multispecies Biofilm Formation” (mBio, 2021).
# Several values for one entry are separate records, joined by “and”; a condition that tells them apart may be missing. Identical values can stand only once.
# Key:
# [1] = molecular target: T1, MpPA14 (Marinomonas primoryensis, UniProt A1YIY3); assay: Dextran-based comparative competition assay (MpPA14); format: binding
# Text: To gain insight into the binding specificity of MpPA14, we investigated the relative affinity of various monosaccharides for the lectin by a comparative competition assay ([12]). MpPA14 bound to Superdex resin was competitively released into solution by the progressive addition of free sugars. The released protein concentrations measured by absorbance at 280 nm were plotted as a function of free sugar concentration to produce semiquantitative binding curves (Fig. 1A and B). The apparent dissociation constant (Kdapp) calculated from these binding curves was used as a relative measure of affinity for each assayed sugar (Table 1). […] D-Ribose bound […] more strongly than its derivative 2-deoxy-D-ribose (Kdapp of 6.8 mM as opposed to 18 mM; Fig. 1B and Table 1).
# (§1) The dextran resin competition assay was performed as previously described for MhPA14 ([12]). Briefly, Superdex 200 (S200) resin was washed twice with 50 mM Tris-HCl (pH 9), 150 mM NaCl, and 5 mM CaCl2. One ml of 1 mg/ml MpPA14 with green fluorescent protein (GFP) fused to its N terminus (GFP-MpPA14) or VcPA14 labeled with FITC was suspended with 300 μl of equilibrated Superdex 200 (S200) resin. Following an incubation period with gentle mixing, the S200 resin bound with GFP-MpPA14 was pelleted by centrifugation. The pellet was washed twice with 50 mM Tris-HCl (pH 9), 150 mM NaCl, and 5 mM CaCl2, and the A280 of the supernatant from the second wash was used as the baseline reading. Next, after resuspension in the same buffer, aliquots of 1.67 μmol saccharide were sequentially added to the solution six or seven times, with the A280 of the supernatant being measured after each addition to quantify the release of lectin. The final addition of saccharide was […]. Data from the dextran affinity assay were plotted using GraphPad Prism after subtracting the background. Next, the data were fitted to a nonlinear regression of one-site-specific binding, which follows the model y/Bmax = x/(Kd + x), with Bmax as the maximum specific binding and Kd as the equilibrium binding constant.
# [2] = system: FITC-labeled MpPA14 binding to the diatom Chaetoceros neogracile; assay: Diatom binding experiment with FITC-MpPA14; format: cell-based
# Text: C. neogracile is a psychrophilic marine diatom found in Antarctic waters ([50]). […] Each diatom cell has 1 to 4 projections protruding from the corners. Given its photosynthetic capability, C. neogracile contains chlorophyll that is intrinsically fluorescent. […] We reason that glycans coating the diatom cell membrane present numerous end group binding sites in close proximity that can serve as a “molecular Velcro” for MpPA14 binding ([30]).
# The Antarctic diatom, Chaetoceros neogracile, was cultured as previously described ([21], [50]). FITC-labeled MpPA14 or VcPA14 (FITC-MpPA14 or FITC-VcPA14, 0.2 mg/ml) in the presence or absence of sugars was incubated with diatoms in buffer (50 mM Tris-HCl [pH 9], 300 mM NaCl, and 5 mM CaCl2) with gentle mixing for 2 h. Next, diatoms were pelleted by centrifugation for 3 min at 7,000 rpm, and the resulting supernatant was discarded. This procedure was repeated three times to wash away unbound FITC-MpPA14 before the diatom pellet was finally resuspended in 20 μl buffer, which was then used to make slides for fluorescence microscopy. In a separate experiment to test if fucose could compete off the MpPA14 that was already bound to diatoms, FITC-MpPA14 was incubated with diatom for 1.5 h before fucose was added. The rest of the experiment followed the same procedure as described above.
# (§2) Images were obtained using an Olympus IX83 inverted fluorescence microscope equipped with an Andor Zyla 4.2 Plus camera. Quantification of the fluorescence intensity was done using Fiji ImageJ. The corrected total cell fluorescence (CTCF) was calculated using the following formula: CTCF = integrated density − (area of selected cell × mean fluorescence of the background) ([60]). Quantification of 30 individual diatom cells was done for each treatment. Graphs were made using GraphPad Prism.
# [3] = system: VcPA14; assay: Dextran-based comparative competition assay (VcPA14); format: binding, Vibrio cholerae; conditions: FITC-VcPA14 on Superdex 200 resin
# Procedure: (§3) As proof of concept for the antiadhesion strategy that targets microbial pathogens, we studied the VcPA14 lectin domain from a large 6,938-amino-acid RTX adhesin (GenBank accession number WP_154597608) of the cholera-causing bacterium, V. cholerae. As discussed, VcPA14 has a similar ligand-binding site as that of MpPA14 (Fig. S1), with key sugar-binding residues conserved (Fig. S1G).
# as §1, with “Data from the dextran affinity assay were plotted using GraphPad Prism after subtracting the background. Next, the data were fitted to a nonlinear regression of one-site-specific binding, which follows the model y/Bmax = x/(Kd + x), with Bmax as the maximum specific binding and Kd as the equilibrium binding constant.” left out
# [4] = molecular target: T1, MpPA14; assay: Isothermal titration calorimetry; format: binding; conditions: 30°C; for ΔH (enthalpy) / ΔS (entropy) / binding stoichiometry (N value): ITC; for binding stoichiometry (N value): one-binding-site model; for Kd: Kd (dissociation constant, ITC), free sugar in solution
# Text: The ITC measurements produced rectangular hyperbolic curves for all three simple saccharides, and fitted well to a one-binding-site model with calculated binding stoichiometry (N) values being close to 1 ([12], [21]). […] However, this is to be expected, because the dextran beads used in the competition assay have multiple binding sites nearby that attract the lectin, whereas the calorimetry was done with free sugars in solution. […] In general, the affinity of lectins for monosaccharides (Kd values) lies within the high micromolar to millimolar range ([8], [30], [31]). […] Furthermore, negative enthalpy (ΔH) and entropy (ΔS) contributions were calculated for all three carbohydrates when they bound to MpPA14, which indicated the binding was driven primarily by polar interaction such as the formation of hydrogen and ionic bonds rather than by hydrophobic interactions. This was consistent with the observation that the Ca^2+-dependent ligand-binding site of MpPA14 consisted of mainly polar and charged amino acids without any residues with large hydrophobic side chains. We therefore acquired detailed structural information to study MpPA14 ligand recognition.
# Isothermal titration calorimetry (ITC) measurements were performed at 30°C with a MicroCal VP-ITC instrument (Malvern). […] Sugars were automatically added by a rotating syringe (400 rpm) at 5-min intervals into the MpPA14 solution for a total of 50 injections. The data were analyzed with Origin software version 5.0 (MicroCal).
# [5] = system: FITC-labeled VcPA14 binding to C. neogracile; assay: Diatom binding experiment with FITC-VcPA14; format: cell-based, Chaetoceros neogracile; conditions: 0.5 mM sugar
# Procedure: as §3
# The Antarctic diatom, Chaetoceros neogracile, was cultured as previously described ([21], [50]). FITC-labeled MpPA14 or VcPA14 (FITC-MpPA14 or FITC-VcPA14, 0.2 mg/ml) in the presence or absence of sugars was incubated with diatoms in buffer (50 mM Tris-HCl [pH 9], 300 mM NaCl, and 5 mM CaCl2) with gentle mixing for 2 h. […] This procedure was repeated three times to wash away unbound FITC-MpPA14 before the diatom pellet was finally resuspended in 20 μl buffer, which was then used to make slides for fluorescence microscopy. […]
# as §2, with “Graphs were made using GraphPad Prism.” left out
# T1 sequence (A1YIY3 entry or part of it): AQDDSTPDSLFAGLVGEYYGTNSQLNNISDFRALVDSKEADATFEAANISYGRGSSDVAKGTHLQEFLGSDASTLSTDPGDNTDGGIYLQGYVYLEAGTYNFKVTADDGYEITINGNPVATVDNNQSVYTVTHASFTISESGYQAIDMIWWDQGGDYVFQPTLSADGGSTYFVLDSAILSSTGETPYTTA
Structure (SMILES),"Kdapp (apparent dissociation constant) ([1]; GFP-MpPA14 bound to Superdex 200 resin released by free sugar, A280, pH 9, 5 mM CaCl2, – = no detectable binding (footnote a))","Kd ([1]; GFP-MpPA14 bound to Superdex 200 resin released by free sugar, A280, pH 9, 5 mM CaCl2, – = no detectable binding (footnote a), read-out: Kdapp (apparent dissociation constant)) [µM]","prevention of lectin binding to the diatom (in words) ([2]; 50 mM sugar, 0.2 mg/ml FITC-MpPA14)",relative binding to VcPA14 (in words) [3],Kd [1],ΔH (enthalpy) [4],ΔS (entropy) [4] [cal/ mol/K],binding stoichiometry (N value) [4],Kd [4],"fluorescent signal displaced (competitive effect) ([2]; 0.1 mM sugar, 0.2 mg/ml FITC-MpPA14) [%]",effect on diatoms precoated with FITC-labeled MpPA14 (in words) ([2]; 0.5 mM sugar added after 1.5 h incubation of lectin with diatoms),"fluorescent signal displaced ([2]; 0.5 mM sugar, 0.2 mg/ml FITC-MpPA14) [%]",blocking of FITC-VcPA14 binding to C. neogracile (in words) [5]
CC(=O)N[C@@H]1[C@@H](O)[C@@H](O)[C@@H](CO)O[C@@H]1O [N-acetyl-galactosamine],no measurable interaction,> 18000,unable to prevent the lectin from binding the diatom,cannot bind,–,–,–,–,–,–,–,–,–
OC[C@H]1OC(O)[C@H](O)[C@@H](O)[C@@H]1O (stereo partly drawn) [Glucose],–,–,–,–,1360 µM and 1400 µM,"-10,880 ± 42.71 cal/mol",-20.1,0.952 ± 0.0216,350 µM,–,–,–,–
"CC(=O)N[C@@H]1[C@@H](O)[C@H](O)[C@@H](CO)O[C@H]1O [N-acetyl-glucosamine, N-acetylglucosamine]",–,–,–,more strongly than glucose,1070 µM,"-15,810 ± 226.1 cal/mol",-34.9,1 ± 0.0116,170 µM and ~150 µM,–,–,–,–
"C[C@H](O)[C@@H](O)[C@@H](O)[C@H](O)C=O [L-Fucose, L-fucose]",–,–,–,–,650 µM,"-11,800 ± 191.8 cal/mol",-21.4,1.01 ± 0.0131,147 µM and ~150 µM,~40,resulted in the dissociation of the lectin from the cells,95,largely blocked
